Assays:
HNDFs = assay: SA-β-gal senescence assay in HG-induced HNDFs; type: cell-based, human; conditions: 72 h
Experimental: Next, the protective effects of antcins on HG-induced HNDF senescence are examined. In FIG. 2B, cells were incubated with ANA (10 μM), ANH (10 μM) and ANM (10 μM) in the presence of HG (30 mM) for 72 h. Cellular senescence is determined by SA-β-gal activity. […] After cells are co-incubated with HG and antcins (ANA, ANH and ANM) for 72 h, senescence is measured by SA-β-gal assay.
Therefore, in order to examine whether the ROS inhibitory effect may be extended to suppress HG-induced senescence, HG-induced senescenece eliminated by ANM is examined. In FIG. 4B, HNDFs are incubated with ANM (10 μM) or NAC (100 μM) in the presence or absence of HG (30 mM) for 72 h. Cellular senescence is determined by SA-β-gal assay. […] As is shown, cells are co-incubated with HG and ANM or NAC for 72 h.
Senescence-associated β-galactosidase (SA-β-gal) activity is determined in formaldehyde-fixed histochemical staining kit according to the manufacturer's instructions (Cell Signaling Technology, Danvers, Calif.). Briefly, cells are grown in 6-well plates at a density of 5×10^4 cells/well, and incubated with HG or test samples for 48 h (HUVECs) or 72 h (HNDFs). After incubation, cells are stained with SA-β-gal staining solution at pH 6.0 overnight and then the development of blue staining is observed and photographed under a bright-field microscope (Motic Electric Group, Xiamen, P.R. China).

HO-1 and NQO-1 = assay: Q-PCR of HO-1 and NQO-1 mRNA in HNDFs; type: cell-based, human; conditions: 12 h
Experimental: Therefore, it is hypothesized that ANM may upregulate anti-oxidant genes, which may suppress HG-induced ROS generation in HNDFs. In FIG. 5B and FIG. 5C, to quantify the mRNA expression levels of HO-1 and NQO-1, HNDFs are incubated with ANM (10 μM) or NAC (100 μM) in the presence or absence of HG (30 mM) for 12 h. Total RNA is extracted and subjected to Q-PCR analysis. Relative mRNA levels are normalized with β-actin mRNA. […] In contrast, as compared with the NG treatment group, […] expression levels of HO-1 and NQO-1 are observed in the HG treatment group.
As shown in the figures, to confirm a hypothesis that ANM protects HNDFs from HG-induced oxidative stress, an Nrf2 gene knockdown system using Nrf2 siRNA is developed. In FIG. 6A, HNDFs are transfected with specific siRNA against Nrf2 or control siRNA. After transfection for 24 h, cells are incubated with ANM (10 μM) in the presence of HG for 12 h. Total RNA is extracted and subjected to Q-PCR analysis to determine HO-1 and NQO-1 mRNA expression levels. […] From the data, it can be concluded that Nrf2 plays a vital role in HO-1 and NQO-1 induction even at the basal level.
Total RNA is extracted from cultured HNDFs using Trizol Reagent (Thermo Fisher Scientific). Q-PCR analysis is performed using Applied Biosystems detection instruments and software. Forward and reverse primers (10 μM), and the working solution SYBR green, is used as a PCR master mix, under the following conditions: 96° C. for 3 minutes followed by 40 cycles at 96° C. for 1 minute, 50° C. for 30 seconds and 72° C. for 90 seconds. GAPDH is used as an internal standard to control for variability in amplification because of differences in starting mRNA concentrations. The copy number of each transcript is calculated as the relative copy number normalized by GAPDH copy number.

wild-type N2 C. elegans = assay: C. elegans oxidative stress-resistance assay (Juglone); type: in vivo, Caenorhabditis elegans; conditions: pretreatment 10 μM, 3 days; 250 μM Juglone 2.5, 3.5 and 4.5 h
Experimental: Please refer to FIG. 8A˜FIG. 8C, which are views showing the life span of wild-type C. elegans extended by ANM from oxidative stress. As shown in the figures, to further confirm the anti-oxidative property of ANM in vivo, C. elegans model is subjected. Wild-type N2 worms are pretreated with ANM for 3 days followed by exposure to oxidative stress. In FIG. 8A, to determine oxidative stress resistance, age synchronized wild-type L1 larvae are pretreated with ANM (10 and 20 μM) or DMSO (0.01%) for 3 days. Oxidative stress is induced by incubation of pre-treated worms with 250 μM Juglone for 2.5, 3.5 and 4.5 h and then scored for viability. Results are expressed as mean±S.E.M of three independent experiments. Statistical significance is ser at *P<0.05 as compared to control vs. sample treatment.
Age synchronized L1 larvae are incubated with liquid S-basal medium containing E. coli OP50 at a density of 1×10^9 cells. MI and 10 and 20 μM ANM or 0.01% DMSO (vehicle control) for 3 days. Subsequently, adult worms are subjected to oxidative stress assay. To induce oxidative stress, worms are incubated with Juglone (5-hydroxyl-1,4-naphthoquinone; Sigma), an ROS-generating agent. ANM treated and control worms are transferred to S-basal medium containing 250 μM Juglone, and incubated from 2.5, 3.5 and 4.5 h. After treatment, viable worms are scored. […] The test is performed triplicate.

C=C(CCC(C)C1CCC2C3=C(C(=O)C(O)C21C)C1(C)CCC(O)C(C)C1CC3)C(C)C(=O)O (centres unmarked) [ANM, antcin M]
SA-β-gal positive cells (HNDFs; 10 μM compound + HG 30 mM, HG alone 9.59-fold (FIG. 2B)): 1.51 fold | HG-induced senescence (SA-β-gal activity), control siRNA cells (SIRT-1 experiment) (HNDFs; ANM 10 μM + HG): significantly inhibits | HG-induced senescence (SA-β-gal), control siRNA cells (Nrf2 experiment) (HNDFs; ANM 10 μM + HG): significantly inhibits | HG-induced senescence (SA-β-gal), siNrf2-transfected cells (HNDFs; ANM 10 μM + HG): significantly prevents | SA-β-gal positive cells (HNDFs; ANM 10 μM or NAC 100 μM + HG 30 mM, HG alone 5.72-fold (FIG. 4B)): 1.89 fold | SA-β-gal activity, SIRT-1 siRNA transfected cells (HNDFs; ANM 10 μM or RES + HG): remains partially elevated | HO-1 and NQO-1 mRNA levels in HG treated groups (HO-1 and NQO-1; ANM 10 μM + HG 30 mM): further increased | HO-1 and NQO-1 expression, siNrf2-transfected cells (HO-1 and NQO-1; ANM 10 μM + HG): decrease | HO-1 and NQO-1 mRNA levels, control siRNA cells (HO-1 and NQO-1; ANM 10 μM + HG, scrambled siRNA): remarkable increase | HO-1 and NQO-1 mRNA levels, compound alone (HO-1 and NQO-1; ANM 10 μM, no HG): significantly increases | survival rate of worms exposed to Juglone-induced oxidative stress (wild-type N2 C. elegans): significantly increases
